From patent publication US10183931B2, “Rho kinase inhibitors” (priority 2012, dated 2019)
pIC50: −log10 of the molar value. Entries after “also recorded” stand apart in the source; their conditions may differ.

Columns and labels:
ROCK1 = ROCK1 (Homo sapiens (Human), UniProt Q13464); conditions: read-out: ROCK1 IC50; Z′-LYTE, 5 uM ATP
Excerpt: (§1) Dose response curves for Rho-kinase inhibition were derived from a Invitrogen Z′-LYTE™ Kinase Assay Kit (Invitrogen catalog number PV3793). Purified active ROCK1 and ROCK2 were obtained from Invitrogen (catalog numbers ROCK1, PV3691 and ROCK2, PV3759). The kit components include a coumarin and fluorescein labeled peptide based on myosin light chain 2 ([sequence]), a proprietary protease containing development reagent and a proprietary Stop buffer used to terminate the development reaction. The inhibitory activities of compounds are measured according to the manufactures protocol. Briefly, decreasing concentrations of test compounds or the known ROCK inhibitor Y-27963, are added, from 10 uM to 2.56×10^−5 uM to reaction buffer containing 50 mM HEPES pH 7.5, 10 mM MgCl2, 5 mM EGTA, and 0.05% Brij-35 and of ROCK1 at 0.18 ug/mL or ROCK2 at 0.8 ug/mL in assay dilution buffer. […] STOP reagent is then added and the reaction and immediately the coumarin and fluorescein emission signals are read on a Tecan Infinite M1000 fluorescence plate reader (excitation: 400 nm; emission 445 and 520 nm, respectively). By comparing the emission ratios of the test samples against control samples, percent phosphorylation values are calculated and the concentration of inhibitor that produces 1/2 inhibition of kinase activity (IC50) is determined using Prism.

ROCK2 = ROCK2 (Homo sapiens (Human), UniProt O75116); conditions: read-out: ROCK2 IC50; Z′-LYTE, 12 uM ATP
Excerpt: as §1

STAT3 phosphorylation = STAT3 phosphorylation in T cells; format: cell-based, human
human CD4+ T cells [1] = test: T cell proliferation in response to TCR stimulation in vitro; format: cell-based
human CD4+ T cells [2] = test: Foxp3+ cells among CD4+ T cells after Th17 skewing activation; format: cell-based; conditions: 5 days Th17 skewing activation
[3] = tested on: CD4+ T cells from RA patients; test: cytokine secretion ex vivo by CD3/CD28 stimulated CD4+ T cells from RA patients; format: cell-based, human
[4] = tested on: TGF-β-induced phosphorylation; test: TGF-β-induced phosphorylation of STAT3, MLC and SMAD2/3 in Tregs; format: cell-based, human
human Tregs = test: Treg suppression of IL-17 secretion in CD4+CD25- effector T cells; format: cell-based; conditions: Tregs treated 3 hours; Treg:Teff 1:4 and 1:9
human CD4+ T cells [5] = test: cytokine secretion by anti-CD3/CD28 stimulated CD4+ T cells in vitro; format: cell-based; conditions: anti-CD3/CD28 stimulation
[6] = RA patients, ex vivo, TCR stimulation

ROCK1, sequence (Q13464 1-535 limits assumed): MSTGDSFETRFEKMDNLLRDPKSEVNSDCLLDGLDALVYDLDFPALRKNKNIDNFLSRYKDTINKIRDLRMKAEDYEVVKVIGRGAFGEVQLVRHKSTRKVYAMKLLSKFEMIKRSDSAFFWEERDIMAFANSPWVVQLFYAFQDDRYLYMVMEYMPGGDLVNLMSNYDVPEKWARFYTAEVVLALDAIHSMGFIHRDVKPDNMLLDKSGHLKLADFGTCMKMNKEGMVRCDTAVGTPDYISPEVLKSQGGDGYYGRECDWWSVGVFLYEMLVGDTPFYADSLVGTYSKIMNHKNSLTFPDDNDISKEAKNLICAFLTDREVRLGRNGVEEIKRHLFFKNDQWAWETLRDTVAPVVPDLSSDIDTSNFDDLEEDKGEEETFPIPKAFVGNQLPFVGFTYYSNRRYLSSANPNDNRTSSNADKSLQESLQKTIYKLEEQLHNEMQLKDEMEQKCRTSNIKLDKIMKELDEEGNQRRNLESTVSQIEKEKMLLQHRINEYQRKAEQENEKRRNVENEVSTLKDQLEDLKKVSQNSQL
ROCK2, sequence (O75116 5-554 limits assumed): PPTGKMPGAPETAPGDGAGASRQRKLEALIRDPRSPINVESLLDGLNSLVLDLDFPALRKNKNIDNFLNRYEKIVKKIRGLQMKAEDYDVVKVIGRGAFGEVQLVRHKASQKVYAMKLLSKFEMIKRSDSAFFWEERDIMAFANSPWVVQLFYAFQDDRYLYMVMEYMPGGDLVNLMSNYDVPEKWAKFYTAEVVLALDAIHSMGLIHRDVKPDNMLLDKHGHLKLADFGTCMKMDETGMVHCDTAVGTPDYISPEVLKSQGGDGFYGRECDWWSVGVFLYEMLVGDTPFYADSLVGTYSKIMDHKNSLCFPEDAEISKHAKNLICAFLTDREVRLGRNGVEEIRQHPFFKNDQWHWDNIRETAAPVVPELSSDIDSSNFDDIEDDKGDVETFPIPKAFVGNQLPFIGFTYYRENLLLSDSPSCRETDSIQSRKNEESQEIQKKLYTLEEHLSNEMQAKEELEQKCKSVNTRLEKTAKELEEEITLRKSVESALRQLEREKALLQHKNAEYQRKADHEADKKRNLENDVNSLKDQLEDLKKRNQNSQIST

Compound	pIC50 (ROCK1)	pIC50 (ROCK2)	phosphorylation of STAT3 (STAT3 phosphorylation; T cells, two experimental designs)	STAT3 phosphorylation (STAT3 phosphorylation; Th17-skewing conditions 5 days, then treatment 3 hours)	ability to proliferate in response to TCR stimulation (human CD4+ T cells [1])	percentage of Foxp3+ cells (human CD4+ T cells [2])	frequencies of IL-17 and IFN-γ-producing cells ([3]; 2 RA patients, intracellular staining)	secretion of IFN-γ [3, 6]	secretion of IL-17 [3, 6]	secretion of IL-21 [3, 6]	phosphorylation of SMAD2/3 [4]	TGF-β-induced MLC phosphorylation ([4]; dose-dependent)	TGF-β-induced STAT3 phosphorylation ([4]; dose-dependent)	ability of Tregs to suppress IL-17 secretion in CD4+CD25- effector T cells (human Tregs)	inhibition of IFN-γ secretion (human CD4+ T cells [5])	inhibition of IL-2 secretion (human CD4+ T cells [5])	IL-17 secretion (human CD4+ T cells [5]; dose-dependent)	IL-21 secretion (human CD4+ T cells [5]; dose-dependent)
CC(N)c1cccc(-c2nccc(Nc3ccc4[nH]ncc4c3)n2)c1 (centres unmarked) [Example 147, N-(2-(3-(1-aminoethyl)phenyl)pyrimidin-4-yl)-1H-indazol-5-amine]	< 5.70	< 5.26																
CC(C)NC(=O)COc1cccc(-c2nc(Nc3ccc4[nH]ncc4c3)cc(C(F)(F)F)n2)c1 [Example 169]	< 5.00	< 5.00																
CC(C)NC(=O)COc1cccc(-c2nc(Nc3ccc4[nH]ncc4c3)c3ccccc3n2)c1 [KD025]			inhibits; also recorded: significantly down-regulates	reduced	inhibits; also recorded: down-regulated	significantly increased	significantly reduced	inhibits; also recorded: significantly down-regulated	inhibits; also recorded: significantly down-regulated	inhibits; also recorded: significantly down-regulated	remains intact	down-regulates	down-regulates	significantly increased	less robust and significant only at high dose (10 μM)	observed only at the highest concentration (10 μM)	inhibits; also recorded: significantly inhibited	inhibits; also recorded: significantly inhibited
